Results: paper doi:10.1101/2025.03.14.643351, “Dissection of amino acid acquisition pathways in Borrelia burgdorferi uncovers unique physiological responses” (bioRxiv, 2025)

Biological target: T1, BB0401 (GltPBb) (Borreliella burgdorferi, UniProt O51362)
T1 construct: gene BB_0401; full-length bb0401 ORF, IPTG-inducible from shuttle vector pibb0401 in chromosomal bb0401-deleted B. burgdorferi (bb0401^cond); intact cells; no tag mentioned
Assay: heavy-isotope uptake into conditional mutant with and without IPTG, LC-MS/MS
Type: cell-based
Conditions: BSK-II medium with unlabelled amino acids, 37 C, 2 h or 6 h uptake after 48 h or 7 d without inducer

T1 sequence (O51362 entry or part of it): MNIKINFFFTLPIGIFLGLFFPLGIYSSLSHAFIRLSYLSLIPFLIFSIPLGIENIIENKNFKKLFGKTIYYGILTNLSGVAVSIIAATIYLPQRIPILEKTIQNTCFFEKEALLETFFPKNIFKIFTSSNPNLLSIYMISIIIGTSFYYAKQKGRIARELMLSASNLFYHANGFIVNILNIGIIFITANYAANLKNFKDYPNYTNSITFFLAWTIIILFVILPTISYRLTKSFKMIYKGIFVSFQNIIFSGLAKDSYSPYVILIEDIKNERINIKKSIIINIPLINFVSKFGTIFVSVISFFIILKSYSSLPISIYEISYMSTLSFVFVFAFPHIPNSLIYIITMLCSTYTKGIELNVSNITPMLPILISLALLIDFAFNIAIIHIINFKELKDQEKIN

Row | SMILES | heavy-isotope uptake into conditional mutant with and without IPTG, LC-MS/MS (labelled compound (13C4,15N1), 30 mg/L) | heavy-isotope uptake into conditional mutant with and without IPTG, LC-MS/MS (labelled compound (13C5,15N1), 86.2 mg/L)
1 | N[C@@H](CC(=O)O)C(=O)O [heavy aspartate (^13C4,^15N1)] | more dramatic reduction in the amount of heavy labeled aspartate and glutamate imported | 
2 | N[C@@H](CCC(=O)O)C(=O)O [heavy glutamate (^13C5,^15N1)] |  | more dramatic reduction in the amount of heavy labeled aspartate and glutamate imported
